From patent US20260144769A1, “4-PHENYLBUTYRATE RESTORED GABA UPTAKE AND REDUCED SEIZURES IN SLC6A1 VARIANT-MEDIATED DISORDERS” (Vanderbilt University, priority 2022, published 2026)

Experiments:
Experiment in all cases: 3H GABA uptake, corrected iPSC astrocytes transfected with GAT-1^YFP cDNA
Assay type in all cases: cell-based
GAT-1 A288V = target: T1, GAT-1 A288V (Rattus norvegicus, UniProt P23978, A288V); conditions: 2 mM PBA, 24 hrs
T1 construct: The coding region of rGAT-1 was inserted into pEYFP-C1 (Clontech, Palo Alto, CA); expressed in transfected cells; host or cells: HEK293T cells (A4); astrocytes from corrected human iPSCs (A24)
Description: (§1) Live images of human neural progenitor cells (NPCs), astrocytes and GABAergic inhibitory neurons differentiated from the human induced pluripotent stem cells (iPSCs) on the day of experiment. […] The DMSO treated corrected or patient cells was taken as 1. […] GABA flux was measured after 30 min transport at room temperature. The influx of GABA, expressed in pmol/μg protein/min, was averaged from duplicates for each condition and for each transfection. The average counting was DMSO treated condition taken as 1. In FIG. 5B, FIG. 5D and FIG. 5F, 966 stands for CI-966 (50 μM) and 711 stands for NNC-711 (35 μM) that was applied 30 min to the astrocytes transfected with the wildtype GAT-1^YFP before preincubation and removed during preincubation. In FIGS. 5B and D, ***p<0.001 vs. corrected DMSO treated. § § <0.01, § § § p<0.001 vs. patient DMSO treated. […] In FIGS. 5B-E, n=4-8 batches of cells. In FIG. 5F, n=4-5 different transfections). Unpaired t test was used for FIG. 5C and FIG. 5E. One-way analysis of variance followed by a Dunnett post hoc multiple comparison test was used in FIG. 5B, FIG. 5D and FIG. 5F. Values were expressed as mean±S.E.M.).
(§2) The plasmid cDNA encoding enhanced yellow fluorescent protein (EYFP)-tagged rat GAT-1 has been previously described. The coding region of rGAT-1 was inserted into pEYFP-C1 (Clontech, Palo Alto, CA). QuikChange Site-directed Mutagenesis kit was utilized to introduce the GAT-1 variants into a wildtype GAT-1 plasmid. The product was then amplified via polymerase chain reaction, transformed using DH5a competent cells, and plated. A clone was chosen and grown overnight. All the GAT-1 variants were confirmed by DNA sequencing. Both the wildtype and the variant cDNAs were prepared with Qiagen Maxiprep kit.
(§3) Astrocytes were differentiated starting from day 5 of NPC passage 1 with the astrocyte culture medium from Sciencell (catalog 1801) following the protocol as previously described. The cell culture medium was refreshed every other day and the cells were passaged at ˜70% confluency. About 1.5×10^5 cells were seeded in each 35 mm dish or each well in 6-well plate when passaging. The differentiation was continuous until the day 30 and all the astrocytes used in experiments in this study were at day 30 after differentiation.
(§4) Briefly, cells were cultured in […] dishes for 3 days before the GABA uptake experiment in DMEM with 10% fetal bovine serum and 1% penicillin/streptomycin. The cells were then transfected with equal amounts of the wildtype or the mutant GAT-1 cDNAs (1 μg) for each condition at 24 hrs or 48 hrs after plating. GABA uptake assay was carried out 48 hrs after transfection. The cells were incubated with preincubation solution for 15 min and then incubated with preincubation solution containing 1 μci/mL 3H GABA and 10 μM unlabeled GABA for 30 min at room temperature. After washing, the cells were lysed with 0.25 N NaOH for 1 hr. Glacial acetic acid was added, and lysates were then determined on a liquid scintillator with QuantaSmart. The flux of GABA (pmol/μg/min) was averaged with at least triplets for each condition at each transfection. The average counting was taken as n=1. The untransfected condition was taken as a baseline that was subtracted from both the wildtype and the mutant conditions. The pmol/μg/min in the mutant was then normalized to the wildtype from each experiment, which was arbitrarily taken as 100%. The protocols for GABA reuptake assay in cultured mouse astrocytes, neuron or iPSC derived cells were modified from the GABA uptake protocol on HEK 293T cells. GAT-1 inhibitors CL-966 and NNC-711 were applied each time to make sure the radioactive counts were specific.
(§5) The working solution was stored at 4° C.
(§6) Wildtype or the mutant GAT-1^YFP were transfected (1 μg cDNAs per 35 mm^2 dishes) in the astrocytes derived from the corrected iPSCs for 48 hrs. […]

GAT-1 D410E = target: T2, GAT-1 D410E (Rattus norvegicus, UniProt P23978, D410E); conditions: 2 mM PBA, 24 hrs
T2 construct: The coding region of rGAT-1 was inserted into pEYFP-C1 (Clontech, Palo Alto, CA); expressed in transfected cells; host or cells: HEK293T cells (A7); astrocytes from corrected human iPSCs (A27)
Description: as §1, §2, §3, §4, §5, §6

GAT-1 G362R = target: T3, GAT-1 G362R (Rattus norvegicus, UniProt P23978, G362R); conditions: 2 mM PBA, 24 hrs
T3 construct: The coding region of rGAT-1 was inserted into pEYFP-C1 (Clontech, Palo Alto, CA); expressed in transfected cells; host or cells: human astrocytes differentiated from CRISPR-corrected patient iPSCs
Description: as §1, §2, §3, §4, §5, §6

GAT-1 V125M = target: T4, GAT-1 V125M (Rattus norvegicus, UniProt P23978, V125M); conditions: 2 mM PBA, 24 hrs
T4 construct: The coding region of rGAT-1 was inserted into pEYFP-C1 (Clontech, Palo Alto, CA); expressed in transfected cells; host or cells: HEK293T cells (A3); astrocytes from corrected human iPSCs (A23)
Description: as §1, §2, §3, §4, §5, §6

GAT-1(W495X) = target: T5, GAT-1(W495X) (Rattus norvegicus, UniProt P23978); conditions: 2 mM PBA, 24 hrs
T5 construct: The coding region of rGAT-1 was inserted into pEYFP-C1 (Clontech, Palo Alto, CA); expressed in transfected cells; host or cells: human astrocytes differentiated from CRISPR-corrected patient iPSCs
Description: as §1, §2, §3, §4, §5, §6

wildtype GAT-1 = target: T6, wildtype GAT-1 (Rattus norvegicus, UniProt P23978); conditions: corrected astrocytes transfected with wt; 2 mM PBA, 24 hrs
T6 construct: The coding region of rGAT-1 was inserted into pEYFP-C1 (Clontech, Palo Alto, CA); expressed in transfected cells; host or cells: HEK293T cells (A1); astrocytes from corrected human iPSCs (A21)
Description: as §1, §2, §3, §4, §5, §6

GABA uptake normalized to its DMSO treated (GAT-1 A288V): 1.204±0.031
GABA uptake normalized to its DMSO treated (GAT-1 D410E): 1.21±0.022
GABA uptake normalized to its DMSO treated (GAT-1 G362R): 1.25±0.023
GABA uptake normalized to its DMSO treated (GAT-1 V125M): 1.285±0.018
GABA uptake normalized to its DMSO treated (GAT-1(W495X)): 1.45±0.04
GABA uptake normalized to its DMSO treated (wildtype GAT-1): 1.188±0.075
SMILES: O=C(O)CCCc1ccccc1 [PBA, 4-phenylbutyric acid]
